Laboratory results: paper PMC11315935, “Multi-layered heterochromatin interaction as a switch for DIM2-mediated DNA methylation” (Nature Communications, 2024)

Experiments:
[1] = system: (CTA)12/(TAG)12 36-mer DNA duplex; assay: In vitro DNA methylation assay of DIM2 (WT or mutant); assay type: biochemical; set-up: DNA methylation activity: unit not given here; conditions: 30 min
HP1 = assay: Size-exclusion chromatography of DIM2-HP1 complex; assay type: binding, Neurospora Crassa; conditions: 1.0 µM DIM2 and/or 2.5 µM HP1, Superdex 200 increase 10/300 GL, pH 7.5
Experimental: For size-exclusion chromatography analysis, 400 µL of the sample mixture containing 1.0 µM DIM2 and/or 2.5 µM HP1 was loaded onto Superdex 200 increase 10/300 GL column (GE Healthcare) and eluted at a flow rate of 0.5 mL/min, in the buffer containing 20 mM Tris-HCl (pH 7.5), 100 mM NaCl, 5% glycerol, and 5 mM DTT. The proteins in each fraction were then visualized by SDS-PAGE.

DIM2 = assay: In vitro DNA methylation assay: effect of HP1 and H3 peptides on DIM2 activity; assay type: biochemical, Neurospora Crassa; conditions: 36-mer DNA duplex, 1.0 µM peptide and/or 2 µM HP1
Experimental: In vitro DNA methylation assay was performed in a 20-µL reaction mixture. For the substrate specificity assay, the following DNA duplexes were used as substrates: CG DNA (Upper strand: 5’-[…]-3’), hemimethylated CG DNA (Upper strand: 5’-TAAATTTXGATTAATAAT-3’, X = 5-methylcytosine; Lower strand: 5’-[…] -3’), CHG DNA (Upper strand: 5’-[…]-3’), and CHH DNA (Upper strand: 5’-[…]-3’). The reaction mixture contains 0.25 µM DIM2, 1.0 µM DNA duplex, 1.0 µM synthesized H3K9me3 peptide (residues 1-24 of H3 plus a C-terminal tryptophan), 0.5 µM HP1, and 0.56 µM S-adenosyl-L-[methyl-^3H] methionine with a specific activity of 18 Ci/mmol (PerkinElmer) in buffer containing 50 mM Tris-HCl (pH 8.0), 100 mM NaCl, 0.05% β-mercaptoethanol, 5% glycerol, and 200 µg/mL BSA. For the rest of the DNA methylation assay, each reaction mixture contains 1.0 µM DIM2, […] methionine with a specific activity of 18 Ci/mmol (PerkinElmer) in buffer containing 50 mM Tris-HCl (pH 8.0), 100 mM NaCl, 0.05% β-mercaptoethanol, 5% glycerol, and 200 µg/mL BSA. In addition, 1.0 µM synthesized H3K9me3 or H3K9me0 peptide (residues 1-24 of H3 plus a C-terminal tryptophan) and/or 2 µM HP1 protein was included to evaluate the effect of H3 and HP1 regulation. The reaction mixture was incubated at 30 °C for 30 min, unless indicated otherwise, before being quenched by the addition of 5 µL of 10 mM cold SAM. After the reaction, 8 μL of the mixtures was loaded onto Hybond N nylon membrane (GE Healthcare), which was left to dry out at room temperature. The membrane was subsequently washed with 0.2 M ammonium bicarbonate (pH 8.2) two times (20 min per time), deionized water (20 min) once, and 95% ethanol (5 min) once. After air dried, the membrane carrying each sample was transferred into a vial containing 3 mL scintillation buffer (Fisher). The tritium scintillation was measured and recorded by a Beckman LS6500 counter. Each the reaction was repeated three times.

DIM2, W261A = assay: ITC binding of H3K9me3 peptide, DIM2 W261A; set-up: species or system Neurospora Crassa
Experimental: (§1) ITC measurements were performed using a MicroCal iTC200 instrument (GE Healthcare). To measure the bindings between proteins and H3K9me3 peptide, 0.04–0.05 mM DIM2, WT or mutant (W261A, W581A, or W261A/W581A), DIM2 RFTS domain, or HP1, WT or mutant (W98A), was titrated with 0.5 mM histone peptide at 7 °C. Prior to the titration, both peptide and protein samples were subjected to overnight dialysis against buffer containing 20 mM Tris-HCl (pH 7.5), 100 mM NaCl, and 1 mM β-mercaptoethanol. Buffer to buffer titration was performed to ensure no abnormality of baseline. Analyses of all data were performed with MicroCal Origin software, fitted with single-site binding mode.

DIM2, W581A = assay: ITC binding of H3K9me3 peptide, DIM2 W581A; set-up: species or system Neurospora Crassa
Experimental: as §1

DIM2, W261A/W581A = assay: ITC binding of H3K9me3 peptide, DIM2 W261A/W581A; set-up: species or system Neurospora Crassa; conditions: 7 °C, pH 7.5, NDB, no detectable binding
Experimental: as §1

## DIM2WT: Neurospora Crassa DIM2 (NCBI accession no. XP_959891.1) (residues 1-1242)
[1]; 1.0 µM DIM2, 30 °C, pH 8.0
  DNA methylation activity of DIM2 (in words): no detectable activity
[1]; Fig. 1b, 1.0 µM DIM2, 1.0 µM DNA duplex, 0.56 µM [methyl-3H]SAM, 1.0 µM H3 peptide and/or 2 µM HP1, pH 8.0, 30 °C, tritium scintillation, replicate 1
  DNA methylation activity: -0.021
[1]; Fig. 1b, 1.0 µM DIM2, 1.0 µM DNA duplex, 0.56 µM [methyl-3H]SAM, 1.0 µM H3 peptide and/or 2 µM HP1, pH 8.0, 30 °C, tritium scintillation, replicate 2
  DNA methylation activity: -0.01
[1]; Fig. 1b, 1.0 µM DIM2, 1.0 µM DNA duplex, 0.56 µM [methyl-3H]SAM, 1.0 µM H3 peptide and/or 2 µM HP1, pH 8.0, 30 °C, tritium scintillation, replicate 3
  DNA methylation activity: -0.04
[1]; Fig. 2g, in the presence of HP1 (2 µM) and H3_1-24K9me3 peptide (1.0 µM), 1.0 µM DIM2, 30 °C, pH 8.0, replicate 1
  DNA methylation activity: 20.908
[1]; Fig. 2g, in the presence of HP1 (2 µM) and H3_1-24K9me3 peptide (1.0 µM), 1.0 µM DIM2, 30 °C, pH 8.0, replicate 2
  DNA methylation activity: 20.644
[1]; Fig. 2g, in the presence of HP1 (2 µM) and H3_1-24K9me3 peptide (1.0 µM), 1.0 µM DIM2, 30 °C, pH 8.0, replicate 3
  DNA methylation activity: 18.328
[1]; Fig. 5f, DNA binding-associated mutants, 1.0 µM DIM2, 1.0 µM DNA duplex, 30 °C, pH 8.0, replicate 1
  DNA methylation activity: 14.337
[1]; Fig. 5f, DNA binding-associated mutants, 1.0 µM DIM2, 1.0 µM DNA duplex, 30 °C, pH 8.0, replicate 2
  DNA methylation activity: 13.213
[1]; Fig. 5f, DNA binding-associated mutants, 1.0 µM DIM2, 1.0 µM DNA duplex, 30 °C, pH 8.0, replicate 3
  DNA methylation activity: 13.147
[1]; Fig. 3h, in the presence of HP1 (2 µM) and H3_1-24K9me3 peptide (1.0 µM), 1.0 µM DIM2, 30 °C, pH 8.0, replicate 1
  DNA methylation activity: 22.922
[1]; Fig. 3h, in the presence of HP1 (2 µM) and H3_1-24K9me3 peptide (1.0 µM), 1.0 µM DIM2, 30 °C, pH 8.0, replicate 2
  DNA methylation activity: 23.125
[1]; Fig. 3h, in the presence of HP1 (2 µM) and H3_1-24K9me3 peptide (1.0 µM), 1.0 µM DIM2, 30 °C, pH 8.0, replicate 3
  DNA methylation activity: 22.99
[1]; Fig. 6d, H3_1-24K9me3 binding-associated mutants, 1.0 µM DIM2, 1.0 µM DNA duplex, 30 °C, pH 8.0, replicate 1
  DNA methylation activity: 19.42
[1]; Fig. 6d, H3_1-24K9me3 binding-associated mutants, 1.0 µM DIM2, 1.0 µM DNA duplex, 30 °C, pH 8.0, replicate 2
  DNA methylation activity: 16.017
[1]; Fig. 6d, H3_1-24K9me3 binding-associated mutants, 1.0 µM DIM2, 1.0 µM DNA duplex, 30 °C, pH 8.0, replicate 3
  DNA methylation activity: 17.874
HP1
  DIM2-HP1 complex formation (in words): co-migration

## H31-24K9me3: synthesized H3K9me3 peptide (residues 1-24 of H3 plus a C-terminal tryptophan)
DIM2
  effect on DNA methylation activity of DIM2 (in words): failed to activate DIM2 appreciably
DIM2, W261A; W261A vs WT
  enhanced binding affinity vs WT DIM2: ~ 2.3 fold
DIM2, W261A; in the absence of DNA
  BAH1-H3K9me3 binding stronger than RFTS-H3K9me3 binding by: ~ 24 fold
DIM2, W581A
  reduction of peptide-binding affinity vs WT DIM2: ~10 fold
DIM2, W261A/W581A
  Kd: NDB
DIM2, W261A/W581A; listed as H3K9me3 peptide
  Kd: complete abolishment
